The numbers were not newly measured in patent publication US20160339010A1, “Treatment of Partly Controlled or Uncontrolled Severe Asthma” (TAKEDA GMBH, priority 2014, published 2016), which cites them from elsewhere.

Data set [1] deals with patients with severe and uncontrolled bronchial asthma. As to conditions: on top of Fluticasone 500 mcg/Salmeterol 50 mcg twice daily; cited from earlier work.
Another data set has as its system asthma patients. Conditions: cited from earlier work.
In data set [2] the test system is patients with high-dose corticosteroid dependent asthma. As to conditions: cited from earlier work.

Turning to `O=C(Nc1c(Cl)cncc1Cl)c1ccc(OC(F)F)c(OCC2CC2)c1` [Roflumilast], in data set [1], the FEV1 result is on record as “significantly improved”, the “Forced vital capacity (FVC)” value is listed as “significantly improved”, the “accumulation of neutrophils in induced sputum” value is given as “reduced” and the “morning PEF” value is reported as “significantly improved”.
For `Cn1c(=O)c2[nH]cnc2n(C)c1=O` [theophylline], the “benefit of add-on therapy to inhaled glucocorticosteroids” value with asthma patients is given as “no benefit”.
As for `CC(C)(O)c1ccccc1CC[C@@H](SCC1(CC(=O)[O-])CC1)c1cccc(/C=C/c2ccc3ccc(Cl)cc3n2)c1.[Na+]` [montelukast, [R-(E)]-1-[[[1-[3-[2-(7-chloro-2-quinolinyl)ethenyl]phenyl]-3-[2-(1-hydroxy-1-methylethyl)phenyl]propyl]thio]methyl]cyclopropaneacetic acid], in data set [2], the sputum eosinophilia result is reported as “failure of montelukast to reduce”.
